{
  "source": "patent US20250171430A1",
  "about": "“PYRAZOLYL COMPOUNDS AS KV7 CHANNEL ACTIVATORS” (Biohaven Therapeutics Ltd., priority 2022, published 2025)",
  "molecular_target": "T1, Kv7.2/7.3 (Homo sapiens, UniProt O43525+O43526)",
  "T1 construct": "Kv7.2 tetracycline-induced, Kv7.3 constitutive",
  "experiment": "Kv7.2/7.3 Activation Assay (Thallium Flux Assay)",
  "type": "cell-based",
  "conditions": "hKV7.2/7.3 cell line; test compound at single concentration of 10 μM; fluorescence at 90 sec normalized to positive control (retigabine, 30 μM)",
  "procedure,_shortened": "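Single-point activity at 10 μM (0.1% DMSO, HEPES-buffered saline, pH 7.4) was scored from fluorescence at 90 s relative to 30 μM retigabine. Categories were none <0.15, moderate 0.15-0.7 and high >0.7. Thallium influx after stimulus addition was followed with FluxOR II Green dye in hKv7.2/7.3 cells, Kv7.2 expressed under overnight tetracycline (10 ng/mL) induction.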",
  "data": [
    {"compound": "Cn1nc(NC(=O)CCC(F)(F)C(F)(F)F)c(C2CCC2)c1-c1ccc(F)cc1", "note": "[Compound 101, N-(4-cyclobutyl-5-(4-fluorophenyl)-1-methyl-1H-pyrazol-3-yl)-4,4,5,5,5-pentafluoropentanamide]", "values": [
      {"measurement": "Kv7.2/7.3 Activity", "value": "++ (“++” High Activity ≥ 0.7)"}
    ]},
    {"compound": "Cn1nc(NC(=O)CC2CCCC2)c(C2CCC2)c1-c1ccc(F)cc1", "note": "[Compound 102, N-(4-cyclobutyl-5-(4-fluorophenyl)-1-methyl-1H-pyrazol-3-yl)-2-cyclopentylacetamide]", "values": [
      {"measurement": "Kv7.2/7.3 Activity", "value": "++ (“++” High Activity ≥ 0.7)"}
    ]},
    {"compound": "Cn1nc(NC(=O)C2(c3ccccc3)CC2)c(C2CCC2)c1-c1ccc(F)cc1", "note": "[Compound 103, N-(4-cyclobutyl-5-(4-fluorophenyl)-1-methyl-1H-pyrazol-3-yl)-1-phenylcyclopropane-1-carboxamide]", "values": [
      {"measurement": "Kv7.2/7.3 Activity", "value": "+ (“+” Moderate Activity 0.15-0.7)"}
    ]},
    {"compound": "CC[C@H](C)CC(=O)Nc1nn(C)c(-c2ccc(F)cc2)c1C1CCC1", "note": "[Compound 104, (S)-N-(4-cyclobutyl-5-(4-fluorophenyl)-1-methyl-1H-pyrazol-3-yl)-3-methylpentanamide]", "values": [
      {"measurement": "Kv7.2/7.3 Activity", "value": "++ (“++” High Activity ≥ 0.7)"}
    ]},
    {"compound": "Cn1nc(NC(=O)CC2(C(F)(F)F)CC2)c(C2CCC2)c1-c1ccccc1F", "note": "[Compound 105, N-(4-cyclobutyl-5-(2-fluorophenyl)-1-methyl-1H-pyrazol-3-yl)-2-(1-(trifluoromethyl)cyclopropyl)acetamide]", "values": [
      {"measurement": "Kv7.2/7.3 Activity", "value": "++ (“++” High Activity ≥ 0.7)"}
    ]},
    {"compound": "Cn1nc(NC(=O)CC2CC(F)(F)C2)c(C2CCC2)c1-c1ccccc1F", "note": "[Compound 106, N-(4-cyclobutyl-5-(2-fluorophenyl)-1-methyl-1H-pyrazol-3-yl)-2-(3,3-difluorocyclobutyl)acetamide]", "values": [
      {"measurement": "Kv7.2/7.3 Activity", "value": "++ (“++” High Activity ≥ 0.7)"}
    ]},
    {"compound": "Cn1nc(NC(=O)CC2(C(F)(F)F)CC2)c(C2CCC2)c1-c1ccc(F)cc1F", "note": "[Compound 107, N-(4-cyclobutyl-5-(2,4-difluorophenyl)-1-methyl-1H-pyrazol-3-yl)-2-(1-(trifluoromethyl)cyclopropyl)acetamide]", "values": [
      {"measurement": "Kv7.2/7.3 Activity", "value": "++ (“++” High Activity ≥ 0.7)"}
    ]},
    {"compound": "Cn1nc(NC(=O)COC(C)(C)C)c(C2CCC2)c1-c1ccc(F)cc1", "note": "[Compound 108, 2-(tert-butoxy)-N-(4-cyclobutyl-5-(4-fluorophenyl)-1-methyl-1H-pyrazol-3-yl)acetamide]", "values": [
      {"measurement": "Kv7.2/7.3 Activity", "value": "+ (“+” Moderate Activity 0.15-0.7)"}
    ]},
    {"compound": "Cn1nc(NC(=O)CC(C(F)(F)F)C(F)(F)F)c(C2CCC2)c1-c1ccc(F)cc1", "note": "[Compound 109, N-(4-cyclobutyl-5-(4-fluorophenyl)-1-methyl-1H-pyrazol-3-yl)-4,4,4-trifluoro-3-(trifluoromethyl)butanamide]", "values": [
      {"measurement": "Kv7.2/7.3 Activity", "value": "++ (“++” High Activity ≥ 0.7)"}
    ]},
    {"compound": "Cn1nc(NC(=O)[C@H]2CC2(C)C)c(C2CCC2)c1-c1ccc(F)cc1", "note": "[Compound 110, (S)-N-(4-cyclobutyl-5-(4-fluorophenyl)-1-methyl-1H-pyrazol-3-yl)-2,2-dimethylcyclopropane-1-carboxamide]", "values": [
      {"measurement": "Kv7.2/7.3 Activity", "value": "++ (“++” High Activity ≥ 0.7)"}
    ]},
    {"compound": "Cn1nc(NC(=O)[C@H]2C[C@]2(C)C(F)F)c(C2CCC2)c1-c1ccc(F)cc1", "note": "[Compound 111, (1S,2S)-N-(4-cyclobutyl-5-(4-fluorophenyl)-1-methyl-1H-pyrazol-3-yl)-2-(difluoromethyl)-2-methylcyclopropane-1-carboxamide]", "values": [
      {"measurement": "Kv7.2/7.3 Activity", "value": "++ (“++” High Activity ≥ 0.7)"}
    ]},
    {"compound": "Cn1nc(NC(=O)[C@H]2C[C@@]2(C)C(F)F)c(C2CCC2)c1-c1ccc(F)cc1", "note": "[Compound 112, (1S,2R)-N-(4-cyclobutyl-5-(4-fluorophenyl)-1-methyl-1H-pyrazol-3-yl)-2-(difluoromethyl)-2-methylcyclopropane-1-carboxamide]", "values": [
      {"measurement": "Kv7.2/7.3 Activity", "value": "++ (“++” High Activity ≥ 0.7)"}
    ]},
    {"compound": "C[C@H](C(=O)Nc1nn(C)c(-c2ccc(F)cc2)c1C1CCC1)C(C)(C)C", "note": "[Compound 113, (S)-N-(4-cyclobutyl-5-(4-fluorophenyl)-1-methyl-1H-pyrazol-3-yl)-2,3,3-trimethylbutanamide]", "values": [
      {"measurement": "Kv7.2/7.3 Activity", "value": "++ (“++” High Activity ≥ 0.7)"}
    ]}
  ]
}
